The subject of series [1] is L1210. As to the kind of experiment: Inhibition of DNA synthesis in mouse L1210 cells assessed as inhibition of [3H]-thymidine incorporation measured per 10^6 cells […] pretreated for 1 hr followed by radiotracer addition measured after 1 hr by scintillation spectrometric analysis relative to control. Format: functional.
The subject of series [2] is L1210. As to the kind of experiment: Inhibition of DNA synthesis in mouse L1210 cells assessed as inhibition of [3H]-thymidine incorporation measured per 10^6 cells at 3 uM pretreated for 1 hr followed by radiotracer addition measured after 1 hr by scintillation spectrometric analysis relative to control. The class given is functional. Background: Uptake of a labelled nucleoside into DNA is a usual measure of proliferation.

Series [3] has as its system L1210. As to the kind of experiment: Inhibition of DNA synthesis in mouse L1210 cells assessed as inhibition of [3H]-thymidine incorporation measured per 10^6 cells at 5 uM pretreated for 1 hr followed by radiotracer addition measured after 1 hr by scintillation spectrometric analysis relative to control. Format: functional.
For series [4], the system named is L1210. As to the kind of experiment: Inhibition of RNA synthesis in mouse L1210 cells assessed as inhibition of [14C]-uridine incorporation measured per 10^6 cells […] pretreated for 1 hr followed by radiotracer addition measured after 1 hr by scintillation spectrometric analysis relative to control. The class given is functional.
The subject of series [5] is L1210. As to the kind of experiment: Inhibition of RNA synthesis in mouse L1210 cells assessed as inhibition of [14C]-uridine incorporation measured per 10^6 cells at 3 uM pretreated for 1 hr followed by radiotracer addition measured after 1 hr by scintillation spectrometric analysis relative to control. Format: functional.
Series [6] has as its system L1210. As to the kind of experiment: Inhibition of RNA synthesis in mouse L1210 cells assessed as inhibition of [14C]-uridine incorporation measured per 10^6 cells at 5 uM pretreated for 1 hr followed by radiotracer addition measured after 1 hr by scintillation spectrometric analysis relative to control. The class given is functional.
Series [7] relates to L1210. The experiment in a line: Cellular uptake in mouse L1210 cells assessed per 10^6 cells at 3 uM up to 120 mins. The class given is ADME, cell-based. The settings on record: l1210, 2 h.
The subject of series [8] is L1210. As to the kind of experiment: Ratio of inhibition of [3H]-thymidine incorporation into DNA in mouse L1210 cells to cellular uptake in mouse L1210 cells.
For series [9], the system named is L1210. As to the kind of experiment: Ratio of inhibition of [14C]-uridine incorporation into RNA in mouse L1210 cells to cellular uptake in mouse L1210 cells.

The structures appear in SMILES notation.

As to `COc1cccc2c1C(=O)c1c(O)c3c(c(O)c1C2=O)C[C@@](O)(C(C)=O)C[C@@H]3O[C@H]1C[C@H](N)[C@H](O)[C@H](C)O1` [DAUNORUBICIN], the inhibition at 1 µM was determined as 37% in the series on L1210 [1] and 47.6% in the series with L1210 [4]. The figures for the inhibition at 3 µM in the series on L1210 [2] and in the series on L1210 [5] were 68.8% and 69.8%, respectively. In addition, the inhibition at 5 µM in the series with L1210 [3] is 83%; in the series on L1210 [6], 74.8%. Further, the Drug uptake in the series on L1210 [7] stood at 0.31 nmol. Besides, the results for the Ratio with L1210 [8] and in the series on L1210 [9] were 119 and 155, respectively.

For `COc1cccc2c1C(=O)c1c(O)c3c(c(O)c1C2=O)C[C@@](O)(C(C)O)C[C@@H]3O[C@H]1C[C@H](N)[C@H](O)[C@H](C)O1` (stereo not given in full), the inhibition at 1 µM in the series on L1210 [1] was 12.1%; with L1210 [4], 11.2%. Besides, the figures for the inhibition at 3 µM in the series on L1210 [2] and in the series on L1210 [5] were 30.8% and 28.9%, respectively. Besides, the values for the inhibition at 5 µM in the series on L1210 [3] and with L1210 [6] were 36.8% and 46.4%, respectively. The molecule further yielded a Drug uptake in the series on L1210 [7] of 0.33 nmol. Moreover, the Ratio with L1210 [8] was determined as 94; in the series with L1210 [9], 88.

Regarding `COc1cccc2c1C(=O)c1c(O)c3c(c(O)c1C2=O)C[C@@](O)([C@@H](O)CO)C[C@@H]3O[C@H]1C[C@H](N)[C@H](O)[C@H](C)O1`, the values for the inhibition at 1 µM in the series on L1210 [1] and with L1210 [4] were 23.7% and 10.1%, respectively. The figures for the inhibition at 3 µM in the series with L1210 [2] and in the series on L1210 [5] were 25% and 17.9%, respectively. Also, the results for the inhibition at 5 µM in the series with L1210 [3] and in the series on L1210 [6] were 32% and 22.4%, respectively. The same molecule showed a Drug uptake in the series with L1210 [7] of 0.16 nmol. Further, the Ratio in the series on L1210 [8] was determined as 200; in the series with L1210 [9], 137.

For the molecule `COc1cccc2c1C(=O)c1c(O)c3c(c(O)c1C2=O)C[C@@](O)(C(=O)CO)C[C@@H]3O[C@H]1C[C@H](N)[C@H](O)[C@H](C)O1` [DOXORUBICIN], the inhibition at 1 µM in the series on L1210 [1] was found to be 28.9%; in the series on L1210 [4], 22.5%. The inhibition at 3 µM with L1210 [2] came to 34.5%; in the series with L1210 [5], 50.8%. Also, the inhibition at 5 µM in the series with L1210 [3] is 52.2%; in the series with L1210 [6], 56.9%. Also, in the series on L1210 [7], the Drug uptake is recorded as 0.19 nmol. For the same molecule, the Ratio in the series on L1210 [8] came to 152; in the series with L1210 [9], 121.

Take `COc1cccc2c1C(=O)C1=C(C2=O)C(O)C2=C(C1O)[C@@H](C[C@@H]1C[C@H](N)[C@@H](O)[C@H](C)O1)C[C@@](O)(/C(C)=N/NC(=O)c1ccccc1)C2` (stereo not given in full) [RUBIDAZONE]: the inhibition at 1 µM in the series with L1210 [1] was 12.7%; in the series on L1210 [4] it was 11.6%. In addition, the values for the inhibition at 3 µM in the series on L1210 [2] and with L1210 [5] were 27.2% and 36.8%, respectively. Also, the inhibition at 5 µM in the series with L1210 [3] was determined as 41%; in the series on L1210 [6], 58.2%. The Drug uptake in the series with L1210 [7] was 0.2 nmol. For the same molecule, the Ratio is reported as 65 in the series with L1210 [8] and 60 in the series on L1210 [9].

One may read the inhibition as how much of the control response was suppressed.

The values are drawn from ChEMBL document CHEMBL3272341, “Cellular pharmocodynamics of several anthrocycline antibiotics” (J Med Chem, 1976).
